# “And” between values parts separate entries of the source, which are not always exact repeats. Equal values may be shown once. Read-outs that look alike come from different tables or passages of the source.
# Assays:
# [1] = Safety and tolerability of (R,R,R) α-tocopherol quinone in healthy male and female subjects (Example 1); conditions: high and moderate fat meal
# Experimental: The safety and tolerability of (R,R,R) α-tocopherol quinone was tested in healthy male and female subjects. Twelve subjects were divided into two groups of six subjects each (Groups A and B). Group A was administered 1.5 g of a (R,R,R) α-tocopherol quinone twice a day for one day. Group B was administered 1.0 g of (R,R,R) α-tocopherol quinone three times a day for 1 day. Both groups of subjects were fed under high and moderate fat meal content.
# [2] = Food-effect and regimen pharmacokinetics, single 3-g daily ATQ dose (Example 5 Part 1); format: in vivo, human; conditions: for Cmax / AUC(0-inf) / Vd/F / half-life / Tmax: male, human, plasma, oral, 3 g; for Vd/F: read-out: Vz/F
# Experimental: The study was conducted in 2 parts. Part 1 was conducted in healthy male subjects only while Part 2 was conducted in healthy male and female subjects. The intent of this study part was to optimize the dosage regimen and diet for the multiple-dose safety and tolerance Part 2 of the study. All plasma ATQ concentrations were determined using a GLP validated bioanalytical method. ATQ was administered as an oral solution in oil (0.49 g/mL). The placebo solution consisted of olive oil alone.
# The dose of 3-g ATQ was selected for Part 1 as it most likely represented the high end of the exposure spectrum selected for the subsequent tolerance trial. For Part 1, serial blood samples for the measurement of the plasma levels of ATQ were collected prior to and following each oral dose administered on Day 1 through 36 hours following the morning dose on Day 1 (or 24 hours post-evening dose).
# protein C = assay: Extended coagulation biomarker panel: protein C; format: in vivo, human; conditions: Part 2, 0.67 g TID, Day 4
# Source text: (§1) In Part 1 the extended panel was collected at screening and at check-in (Day −1) and Day 2 of each period unless the study results warranted a different sampling schedule. In Part 2, the same of the exploratory coagulation biomarkers were collected at screening, check-in, Day 4, and Day 8 in Cohorts 1 and 2, or at check-in, Day 7, and Day 14 in Cohorts 3 and 4 with the following exception: in Cohorts 3 and 4, platelet function was collected at check-in only or when medically indicated.
# factor X = assay: Extended coagulation biomarker panel: factor X; format: in vivo, human
# Source text: as §1
# factor V = assay: Extended coagulation biomarker panel: factor V; set-up: species or system human; conditions: in vivo
# Source text: as §1
# antithrombin (AT) = assay: Extended coagulation biomarker panel: antithrombin; set-up: species or system human; conditions: in vivo
# Source text: as §1
# [3] = tested on: coagulation tests (PT, INR, PTT); assay: Coagulation tests (PT, INR, PTT) after single ATQ dose (Example 4); conditions: for Highest postdose PT value above ULN: one subject
# Source text: (§2) The INR is the ratio of a subject's prothombin time (PTtest) to the prothombin time of a normal (control) sample (PTnormal), raised to the power of the International Sensitivity Index (ISI) value for the analytical system:
# “Prothrombin time” or “PT” refers to the time it takes the blood plasma of a subject to clot after the addition of a thromboplastin reagent. “Thromboplastin reagent” refers to a standardized commercial product which is used in blood coagulation assays to measure blood clotting time. Non-limiting examples of thromboplastin reagents include RecombiPlasTin (Beckman Coulter, Brea, Calif.), INNOVN® and THROMBOREL® (Dade Behring, Liederbach, Germany).
# (§3) As used herein, the terms “activated partial thromboplastin time” or “aPTT” or “partial thromboplastin time” or “PTT,” refer to the time it takes the blood plasma of a subject to clot after the addition of a phospholipid (i.e., partial thromboplastin) and calcium chloride. Non-limiting examples of phospholipids for use in determining aPTT include silica and kaolin.
# [4] = tested on: coagulation (PT, INR, aPTT); assay: Basic coagulation panel (PT, INR, aPTT) and coagulation safety (Example 5)
# Source text: as §2
# “Prothrombin time” or “PT” refers to the time it takes the blood plasma of a subject to clot after the addition of a thromboplastin reagent. “Thromboplastin reagent” refers to a standardized commercial product which is used in blood coagulation assays to measure blood clotting time.
# as §3
# INR grades are used to rank the severity thresholds for the coagulation factors relative to the upper normal of limit values (ULN). The higher the INR grade the higher the severity. […] As used herein, “Grade 1” refers to an INR value of 1.1 to 1.65 in a subject. As used herein, “Grade 2” refers to an INR value of 1.65 to 2.2 in a subject. As used herein, “Grade 3” refers to an INR value greater than 2.2 in a subject.
# Thus both the basic coagulation panel assessments including PT, INR, aPTT, and platelet counts were performed at screening, on Day −1, and extensively throughout the treatment period to assess the potential effect of ATQ on coagulation.
# This section covers the PD effect of ATQ on the coagulation parameters PT, INR, and aPPT and the relative time course of drug induced changes in these parameters.
# [5] = 3-g BID, high-fat meal, mean, N = 6
# [6] = 3-g BID, standard meal, mean, N = 6
# [7] = 3-g TID, high-fat meal, mean, N = 5
# [8] = 3-g TID, standard meal, mean, N = 6
# [9] = Cohort 5 (6-g ATQ), subject with highest PT
# [10] = Cohort 6 (2.2-g as 0.735-g TID)
# [11] = of the 48 subjects who received ATQ
structure (smiles),measurement,setting,value
"CC1=C(C)C(=O)C(CC[C@](C)(O)CCC[C@H](C)CCC[C@H](C)CCCC(C)C)=C(C)C1=O [ATQ, alpha-tocopherolquinone]",Safety and tolerability (side effects),[1]; Group A: 1.5 g twice a day for one day,no side effects were observed
same,Safety and tolerability (side effects),[1]; Group B: 1.0 g three times a day for 1 day,no side effects were observed
same,CLpo,[2]; [5],21.4 L/h
same,CLpo,[2]; [6],22.0 L/h
same,CLpo,[2]; [7],18.2 L/h
same,CLpo,[2]; [8],18.1 L/h
same,Overall exposure (AUC) BID versus TID,[2]; 3-g dose as 2×1.5-g every 12 hours or 3×1.0-g every 6 hours,similar
same,Cmax,"[2]; 3-g BID (2×1.5 g 12 h apart), high-fat meal, baseline-adjusted, mean, N = 6, read-out: Cmax",13400 ng/mL
same,Cmax,"[2]; 3-g BID (2×1.5 g 12 h apart), standard meal, baseline-adjusted, mean, N = 6, read-out: Cmax",15300 ng/mL
same,AUC(0-inf),"[2]; 3-g BID, high-fat meal, baseline-adjusted, mean, N = 6",152 µg·h/mL
same,Vd/F,[2]; [5],132 L
same,half-life,"[2]; 3-g BID, high-fat meal, mean, N = 6, read-out: t1/2 (converted)",4.2 h
same,Tmax,"[2]; 3-g BID, high-fat meal, median, N = 6, read-out: Tmax",10.5 h
same,AUC(0-inf),"[2]; 3-g BID, standard meal, baseline-adjusted, mean, N = 6",157 µg·h/mL
same,Vd/F,[2]; [6],143 L
same,half-life,"[2]; 3-g BID, standard meal, mean, N = 6, read-out: t1/2 (converted)",4.34 h
same,Tmax,"[2]; 3-g BID, standard meal, median, N = 6, read-out: Tmax",6 h
same,Cmax,"[2]; 3-g TID (3×1.0 g 6 h apart), high-fat meal, baseline-adjusted, mean, N = 5, read-out: Cmax",14200 ng/mL
same,Cmax,"[2]; 3-g TID (3×1.0 g 6 h apart), standard meal, baseline-adjusted, mean, N = 6, read-out: Cmax",15000 ng/mL
same,AUC(0-inf),"[2]; 3-g TID, high-fat meal, baseline-adjusted, mean, N = 5",178 µg·h/mL
same,Vd/F,[2]; [7],122 L
same,half-life,"[2]; 3-g TID, high-fat meal, mean, N = 5, read-out: t1/2 (converted)",4.88 h
same,Tmax,"[2]; 3-g TID, high-fat meal, median, N = 5, read-out: Tmax",17.5 h
same,AUC(0-inf),"[2]; 3-g TID, standard meal, baseline-adjusted, mean, N = 6",169 µg·h/mL
same,Vd/F,[2]; [8],139 L
same,half-life,"[2]; 3-g TID, standard meal, mean, N = 6, read-out: t1/2 (converted)",5.37 h
same,Tmax,"[2]; 3-g TID, standard meal, median, N = 6, read-out: Tmax",12.7 h
same,Cmax,"[2]; single 3-g daily dose, across treatments, read-out: mean Cmax range",13400 to 15300 ng/mL
same,half-life,"[2]; single 3-g daily dose, across treatments, read-out: mean t1/2 values (range across treatments)",4.2 to 5.37 h
same,Tmax,"[2]; single 3-g daily dose, across treatments, read-out: median Tmax (range across treatments)",6 to 17.5 h
same,ATQ exposure (Cmax and AUC) high-fat versus standard meal,[2]; single 3-g daily dose,no difference
same,Protein C activity,protein C,109%
same,Decrease from baseline activity of factor X,"factor X; Part 2, 0.67 g TID, Day 4",62%
same,Decrease from baseline activity of factor X,"factor X; Part 2, Day 14",68%
same,Effect on the activity of factor V,factor V,did not appear to affect
same,Effect on the activity of AT,antithrombin (AT),did not appear to affect
same,INR change,[3]; 2 g administered as a single entity (2 g QD),NO INR change
same,Subjects with 24-hour postdose PT value above ULN,[3]; Cohort 3 (1-g ATQ),2 of 8
same,24-hour postdose PT value above ULN,"[3]; Cohort 3 (1-g ATQ), 2 of 8 subjects",5.2%
same,Subjects with postdose PT values above ULN,[3]; Cohort 5 (6-g ATQ),5 of 8
same,Highest postdose PT value above ULN,[3]; Cohort 5 (6-g ATQ),39.1%
same,Increase in INR above ULN,[3]; [9],23.1%
same,Increase in PTT above ULN,[3]; [9],5.6%
same,Subjects with postdose PT values above ULN,[3]; [10],4 of 8
same,Highest postdose PT value above ULN,[3]; [10],20.9%
same,Increase in INR above ULN,"[3]; Cohort 6 (2.2-g as 0.735-g TID), subject with highest PT",7.7%
same,Subjects with a 24-hour postdose INR value above ULN,[3]; [11],2 subjects
same,Subjects with a 24-hour postdose PTT value above ULN,[3]; [11],1 subject
same,Subjects with postdose PT values above the upper limit of normal (ULN),[3]; [11],11 subjects
same,Time for INR and PTT values to return to normal range,"[3]; postdose, all subjects",≤ 48 h
same,"Effect on the coagulation tests, especially PT and INR","[3]; single doses, 48 subjects who received ATQ",slight but not clinically significant effect
same,Reversibility of changes in hemostasis,[3]; upon cessation of the treatment,fully reversible
same,INR values reached by individual subjects,"[4]; 0.67 g TID group, 3 of 8 subjects",2.3 and 3.0 (2×)
same,Subjects with that grade of INR increase,"[4]; 0.75 g BID, Grade 2",2 of 6
same,Subjects with that grade of INR increase,"[4]; 2-g/day (0.67 g TID), Grade 3, active-treated",3 of 8
same,"Effect on coagulation (INR, PT, aPTT)","[4]; 3-g over 1 day, 0.33 g TID and 0.67 g TID or 0.75 g BID",clear effect on coagulation
same,Effect on coagulation during prolonged dosing,[4]; 14 days at 0.5 g and 0.75 g BID,appeared to slowly abate while still on drug beyond 8 days
same,Subjects with clinical coagulation laboratory values greater than 1.5 times the upper limit of normal (value greater than 1.65),[4]; Part 1,5 subjects
same,Subjects with clinically relevant changes in clinical laboratory values related to treatment-emergent adverse events,[4]; Part 1,Twelve
same,Active-treated subjects with clinically relevant changes in clinical laboratory values related to treatment-emergent adverse events,"[4]; b179, part not stated",Twenty-five
same,Subjects with study-drug related clinical coagulation laboratory values greater than 1.5 times the upper limit of normal (value greater than 1.65),"[4]; b179, part not stated",11 subjects
same,Onset of the effect on coagulation,"[4]; following the first (high dose) of ATQ, Part 1",18 h
same,Time course of the effect on coagulation,"[4]; initial increase through Day 4, second peak by Day 7 to 8",biphasic
same,Onset of the effect on coagulation,[4]; multiple dose administration,≤ 48 h
same,Time at which most subjects approach baseline coagulation values,[4]; post last dose,48 h
same,Subjects with that grade of INR increase,"[4]; single daily doses of 3-g ATQ, Grade 2",4 of 12
